Results on four compounds are retold here after patent US20090137390A1, “Materials and methods for enhancing nitrogen fixation in plants” (priority 2004, published 2009).

Assay [1] deals with Medicago sativa roots and hypocotyls. As to the kind of experiment: Endophytic colonization of alfalfa seedlings (CFU recovered from interior of roots and hypocotyls). Format: in vivo. The text has this: (§1) Bacterial strains and inoculum preparation. BA3104 was constructed by sequential P22 transduction into 14028 using a P22HTint lysate grown on the SL3201 fliC::Tn10 fliB::MudJ strain kindly provided by Dr. Allison O'Brien (Schmitt et al., 2001). pHC112 was constructed by amplifying the spaS gene of 14028 (nucleotides 28 to 1327 of GenBank accession number AE008832) using Taq DNA polymerase. The spaS fragment was cloned into pCR-2.1-TOPO (Invitrogen), removed using EcoRI, and cloned into the EcoRI site of pWSK29 (Wang and Kushner 1991). pHC113 was constructed in the same way except that the sipB gene was amplified (nucleotides 18133 to 20138 of GenBank accession number AE008831). Bacterial strains were cultured and inoculum prepared as described previously (Dong et al., 2003a; Dong et al., 2003b) with the exception of the experiments designed to estimate the number of infection events. For these experiments the inoculum strains were composed of a mixture of either 14028 or Kp342 with and without a constitutively expressed GFP gene.
(§2) Seed surface sterilization, germination, inoculation, plant culture and harvest. The manipulation of plants, from seed surface sterilization to plant harvest, were carried out by methods developed previously (Dong et al., 2003a; Dong et al., 2003b).
(§3) Determination of microbial population within surface sterilized plant tissue. With the exception of the M. truncatula sickle experiment, where the whole plant tissue was used to determine microbial populations, only the root and hypocotyl were examined for bacterial colonization. The procedures used for surface sterilization, determination of endophytic microbial populations and statistical analysis were done as described previously (Dong et al., 2003a; Dong et al., 2003b).
(§4) Assurance of endophytic colonization results. To ensure the endophytic colonization numbers presented reflect only the number of cells within the interior of plant tissue, previously developed methods were followed (Dong et al., 2003a; Dong et al., 2003b).
Induction of ethylene response in seedlings. […]

The test system of assay [2] is Medicago truncatula roots and hypocotyls. Nature of the assay: Endophytic colonization of Medicago truncatula seedlings (CFU recovered from interior). It counts as in vivo.
Source text: as §1, §2, §3, §4
Induction of ethylene response in seedlings. To induce ethylene responses, seedlings were cultured in growth medium as described previously (Dong et al., 2003a) supplemented with 5 μM 1-aminocyclopropane-1-carboxylic acid (ACC). ACC was dissolved in water and filter sterilized prior to its addition to autoclaved plant growth media. In most experiments, seedlings were exposed to media containing ACC for 12 hours prior to inoculation.
Preparation and use of 1-methylcyclopropene (1-MCP). The gaseous ethylene action inhibitor, 1-MCP, was prepared and stored as described by Hall et al. (2000). 1-MCP was generated from ETHYLBLOC, which was provided by A. B. Bleecker (University of Wisconsin—Madison). The concentration of 1-MCP in ETHYLBLOC is of 0.14%. A stock of 1-MCP of 100 ppm was created in a serum bottle of 121.5 ml in volume. This was accomplished by adding 19.44 mg of ETHYLBLOC and 0.5 ml of hot H2O to the serum bottle and set to rest for 15 minutes. The stock was used to dispense 0.3 ml of headspace gas to 30 ml stopped test tubes where the plants were cultured, resulting in a final concentration of 1 ppm per tube. The plant cultures were placed under conditions as described previously (Dong et al., 2003a; Dong et al., 2003b) with the exception of a rubber stopper used to conceal 1-MCP. The stoppers were removed daily, flushed with air, stopped again and finally freshly prepared 1-MCP was added to the desired final concentration.

The subject of the next assay is Triticum aestivum roots. Nature of the assay: Endophytic colonization of wheat seedlings (CFU recovered from interior of roots and hypocotyls). Particulars: varying amounts of ACC. Format: in vivo.
Source text: as §1, §2
Determination of microbial population within surface sterilized plant tissue. […]

The subject of another assay is PR1::GUS. Nature of the assay: GUS histochemical staining and GUS fluorogenic assay in PR1::GUS plants. It counts as in vivo, Arabidopsis thaliana. To be noted: histochemical staining and fluorogenic assays. The procedure: GUS histochemical staining and GUS fluorogenic assay. Roots of transgenic Arabidopsis thaliana Col-0 harboring a pathogenesis-related 1 (PR1) gene promoter fused to the bacterial uidA (β-glucuronidase) reporter gene (PR1::GUS) were inoculated with 10^7 CFU S. enterica 14028, the 14028 sipB mutant, and the complemented sipB mutant,. Exogenous application of salicylic acid (5 mM) and infiltration of leaves with 10^7 CFU of an avirulent strain of P. syringae DC3000 carrying the avrRpt2 on plasmid PV288 were used as positive controls (Kunkel et al., 1993; Ton et al., 2002). The histochemical assay was performed as described by Sundaresan et al. (1995) with slight modifications (Sundaresan et al., 1995). Plants were immersed in staining buffer (50 mM sodium phosphate pH7, 10 mM EDTA, 0.1% Triton X-100, 100 μg/ml chloramphenicol, 5 mM potassium ferricyanide and 0.5 mg/ml 5-bromo-4-chloro-3-indolyl-β-D-glucuronide (X-Glc). Plants were then vacuum infiltrated, incubated overnight at 37° C., and destained with 70% ethanol.
To conduct the quantitative GUS fluorogenic assay, whole plants were flash-frozen in liquid N2 and crushed. The fluorogenic assay and protein extraction were done as described by (Jefferson et al, 1987). Protein concentration of the samples was determined using a BCA protein assay kit (PIERCE, Rockford, Ill.).

“Also recorded” adds a separate entry of the source.

Regarding `NC1(C(=O)O)CC1` [ACC, 1-aminocyclopropane-1-carboxylic acid], in assay [1] (colonization by S. typhimurium 14028, wild-type M. sativa, ACC in growth media (5 μM)), the “Reduction of endophytic colonization” value was “four”. For the same compound, the “Decrease of endophytic colonization” value in assay [1] (wild-type strain (14028), FIG. 6) is reported as “over two orders of magnitude”. Further, the “Number of Kp342 cells within roots over time with ACC treatment” value in assay [2] (5 μM ACC at inoculation, 10^2 cells of Kp342 per plant, days 0-6) was “statistically different from the controls on days 4, 5, and 6; also recorded: does not change significantly with ACC treatment until four days after inoculation”. Moreover, the “Decline in number of cells within wheat roots” value in the assay on Triticum aestivum roots (14028 cells) was 1.2 orders of magnitude; with Triticum aestivum roots (Kp342 cells) it was 1.85 orders of magnitude.
In the case of `CC1=CC1` [1-MCP, 1-methylcyclopropene], in assay [1] (1 ppm 1-MCP, 5 μM ACC), the “Effect on the ACC-induced reduction in endophytic colonization of alfalfa” value is reported as “reversed the reduction in endophytic colonization of alfalfa observed with ACC”. In addition, the “Endophytic colonization upon treatment” value in assay [2] (1 ppm 1-MCP, regardless of presence or absence of exogenous ACC, Kp342) is on record as “significantly higher endophytic colonization”.
In the case of `C=C` [ethylene], the “Endophytic colonization in plants exposed to C2H4 or ACC for the same time period” value in assay [2] (5 μM, Kp342) is reported as “No difference in endophytic colonization”. The “Time of application needed for maximal inhibition of endophytic colonization” value in assay [2] (C2H4 5 μM applied from one day prior to up to 6 days after inoculation) was “prior to, or at the time of inoculation”. In addition, the “Time after exposure at which effects on endophytic colonization become significant” value in assay [2] (Kp342) turned out to be 96 h.
For the compound `O=C(O)c1ccccc1O` [salicylic acid], the “PR1::GUS induction / expression” value in the assay on PR1::GUS is recorded as “strongly induced”.
